Measurements as given in patent publication US7985761B2, “Diphenylurea derivatives and their use as chloride channel blockers or BKCa channel modulators” (Neurosearch A/S, priority 2006, dated 2011).

How the values were obtained:
Format in all cases: cell-based
[1] = biological target: T1, Volume Regulated Anion Channel (VRAC) (Homo sapiens, UniProt Q8IWT6); assay: Volume Regulated Anion Channel (VRAC) effect, whole cell patch clamp in HEK293 cells; details: VRAC activated by swelling in hypotonic (75% tonicity) extracellular solution, read-out: KD value (time dependent block of VRAC current)
T1 construct: endogenous in cells; host or cells: HEK293
T1 sequence (Q8IWT6 1-810): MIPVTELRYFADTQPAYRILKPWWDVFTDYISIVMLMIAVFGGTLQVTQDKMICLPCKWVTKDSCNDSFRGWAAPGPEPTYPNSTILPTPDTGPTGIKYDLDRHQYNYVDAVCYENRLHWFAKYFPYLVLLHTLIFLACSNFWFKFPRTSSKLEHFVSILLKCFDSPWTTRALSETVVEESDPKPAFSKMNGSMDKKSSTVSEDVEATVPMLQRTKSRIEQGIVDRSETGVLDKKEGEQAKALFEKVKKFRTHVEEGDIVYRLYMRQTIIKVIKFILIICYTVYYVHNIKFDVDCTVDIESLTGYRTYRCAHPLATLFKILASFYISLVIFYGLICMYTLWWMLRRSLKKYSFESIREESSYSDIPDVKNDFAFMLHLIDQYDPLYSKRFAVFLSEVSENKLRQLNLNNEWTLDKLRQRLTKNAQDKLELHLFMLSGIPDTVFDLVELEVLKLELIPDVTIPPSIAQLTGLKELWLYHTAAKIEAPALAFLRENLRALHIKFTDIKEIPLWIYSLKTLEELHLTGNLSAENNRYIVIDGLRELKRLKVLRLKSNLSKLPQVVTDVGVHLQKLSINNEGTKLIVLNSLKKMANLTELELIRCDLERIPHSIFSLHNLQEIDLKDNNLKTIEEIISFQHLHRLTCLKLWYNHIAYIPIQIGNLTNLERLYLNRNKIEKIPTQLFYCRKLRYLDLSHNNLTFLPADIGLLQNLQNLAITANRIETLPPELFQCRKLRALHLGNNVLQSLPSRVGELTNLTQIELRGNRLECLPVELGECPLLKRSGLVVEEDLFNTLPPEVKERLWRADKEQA
Experimental: Volume Regulated Anion Channel (VRAC) Effect
The activity on the Volume Regulated Anion Channel (VRAC) was tested by the whole cell patch clamp technique using Human Embryonic Kidney cells (HEK293) as described in Helix et al, J Membr Biol. 2003 196(2):83-94, In short, VRAC was activated by swelling of the cell in hypotonic (75% tonicity) extracellular salt solution and the anion current elicited by voltage ramps was measured vs. time. After stabilization of the current the compound to be tested was added to the extracellular solution and the time dependent block was followed for calculation of the KD value.

human BK channels = biological target: T2, human BK channels (Homo sapiens, UniProt Q12791); assay: Human BK channel screening, two-electrode voltage clamp in Xenopus oocytes; details: 0.3 μM test compound, Xenopus oocytes expressing human BK channels
T2 construct: expressed in transfected cells; host or cells: Xenopus oocytes
Experimental: Human BK Channel Screening
The influence of a compound on the membrane currents was determined electrophysiologically on Xenopus Oocytes capable of expressing human BK channels, and the current through the channels was recorded using the classical two-electrode voltage clamp technique.
The first compound of Example 4, N-(3,5-Difluoro-phenyl)-N′-[3-(5-oxo-4,5-dihydro-[1,2,4]oxadiazol-3-yl)-4′-trifluoromethyl-biphenyl-4-yl]urea, was subjected to this determination at a concentrations of 0.3 μM of test compound, and it caused an increase of BK current relative to the basal current of more than 200%.

[2] = test system: human erythrocyte chloride channels; assay: In vitro human erythrocyte chloride conductance; details: read-out: IC50 value - the concentration at which 50% of the chloride channels are blocked
Experimental: In Vitro Human Erythrocyte Chloride Conductance
The chloride conductance was measured according to the proceeding as described in the “Biology” paragraph of the specification of WO 00/24707. The parameter calculated from these studies is the IC50 value—the concentration at which 50% of the chloride channels are blocked.

T2 sequence (Q12791 whole entry): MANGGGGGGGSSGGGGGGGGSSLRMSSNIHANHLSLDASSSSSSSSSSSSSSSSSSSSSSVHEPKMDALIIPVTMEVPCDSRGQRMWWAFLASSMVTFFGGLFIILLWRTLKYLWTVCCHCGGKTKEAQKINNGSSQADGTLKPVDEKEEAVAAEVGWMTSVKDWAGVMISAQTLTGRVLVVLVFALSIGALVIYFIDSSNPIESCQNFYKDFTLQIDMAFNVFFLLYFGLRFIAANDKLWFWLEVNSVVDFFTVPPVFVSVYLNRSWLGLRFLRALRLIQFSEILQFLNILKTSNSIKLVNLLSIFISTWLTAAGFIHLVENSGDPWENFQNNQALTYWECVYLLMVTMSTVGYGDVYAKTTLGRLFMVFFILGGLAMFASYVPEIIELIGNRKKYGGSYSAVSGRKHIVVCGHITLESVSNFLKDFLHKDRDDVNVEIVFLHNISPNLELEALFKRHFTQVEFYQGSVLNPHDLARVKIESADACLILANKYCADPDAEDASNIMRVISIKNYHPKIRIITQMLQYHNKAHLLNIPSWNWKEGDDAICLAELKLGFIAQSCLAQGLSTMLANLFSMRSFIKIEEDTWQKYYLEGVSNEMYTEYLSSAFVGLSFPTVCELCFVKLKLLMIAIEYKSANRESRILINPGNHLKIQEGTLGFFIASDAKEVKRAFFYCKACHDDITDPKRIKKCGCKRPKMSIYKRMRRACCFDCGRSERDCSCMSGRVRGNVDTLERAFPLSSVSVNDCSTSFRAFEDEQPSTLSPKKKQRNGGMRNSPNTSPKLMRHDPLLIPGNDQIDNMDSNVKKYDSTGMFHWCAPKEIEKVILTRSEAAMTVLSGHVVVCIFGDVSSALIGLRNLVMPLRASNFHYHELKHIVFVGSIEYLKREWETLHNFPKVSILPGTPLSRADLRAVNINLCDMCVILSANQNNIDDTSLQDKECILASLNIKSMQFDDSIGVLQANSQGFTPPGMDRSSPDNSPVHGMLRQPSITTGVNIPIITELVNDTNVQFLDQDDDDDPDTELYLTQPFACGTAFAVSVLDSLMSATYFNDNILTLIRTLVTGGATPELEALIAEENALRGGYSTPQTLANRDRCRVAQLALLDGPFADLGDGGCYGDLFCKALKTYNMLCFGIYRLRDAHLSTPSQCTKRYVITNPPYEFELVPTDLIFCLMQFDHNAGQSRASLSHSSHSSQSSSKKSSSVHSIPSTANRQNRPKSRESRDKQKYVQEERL

O=C(Nc1cc(F)cc(F)c1)Nc1ccc(-c2ccc(C(F)(F)F)cc2)cc1-c1noc(=O)[nH]1 [first compound of Example 4, N-(3,5-Difluoro-phenyl)-N′-[3-(5-oxo-4,5-dihydro-[1,2,4]oxadiazol-3-yl)-4′-trifluoromethyl-biphenyl-4-yl]urea]
Kd [1]: 230 nM | increase of BK current relative to the basal current (human BK channels): more than 200% | IC50 [2]: 280 nM
